Reference: publication PMC11599453 (The Journal of Biological Chemistry, 2024)
Residue numbers refer to the chain shown, from its start. Several values for one entry are separate records, joined by “and”; a condition that tells them apart may be missing. Equal entries are not always repeated. Structures can show the parent of a compound that is named as a salt.

How the values were obtained:
[1] = target: CRISP2 (cysteine-rich secretory protein 2), purified, fluorescently labeled (UniProt P16562); experiment: MST; 100 nM RED-tris-NTA-labeled CRISP2 (or L98G Y99P mutant) mixed with a serial dilution of unlabeled A1BG or Ig domain; 20 mM Tris pH 7.5, 30 mM NaCl, 0.05% Triton X-100; Monolith NT.115, 80% laser power; one site specific fit; triplicates
[2] = target: T1, A1BG (Homo sapiens, UniProt P04217); experiment: MST lipid binding to A1BG; conditions: A1BG alone
T1 construct: made in house; host or cells: E. coli BL21
T1 sequence (P04217 22-495): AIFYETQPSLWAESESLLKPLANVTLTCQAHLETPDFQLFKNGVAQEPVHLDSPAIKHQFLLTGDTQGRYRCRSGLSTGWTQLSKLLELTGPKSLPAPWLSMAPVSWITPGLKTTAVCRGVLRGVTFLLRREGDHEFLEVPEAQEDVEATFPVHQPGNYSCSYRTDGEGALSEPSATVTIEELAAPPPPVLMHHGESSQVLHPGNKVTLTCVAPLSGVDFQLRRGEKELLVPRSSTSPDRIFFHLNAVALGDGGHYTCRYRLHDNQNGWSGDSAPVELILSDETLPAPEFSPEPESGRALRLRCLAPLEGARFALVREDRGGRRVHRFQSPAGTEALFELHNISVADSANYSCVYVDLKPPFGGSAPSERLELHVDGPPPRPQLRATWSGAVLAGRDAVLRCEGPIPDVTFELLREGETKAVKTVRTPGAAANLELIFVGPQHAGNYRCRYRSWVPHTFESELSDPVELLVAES
Procedure: (§1) To assess protein-protein and protein-lipid interactions, MST experiments were performed using a Monolith NT.115 (Nanotemper Technologies). […] Samples were loaded into MST standard capillaries, and MST measurements were performed using an 80% laser power setting. The dissociation constant Kd was obtained by plotting the fraction bound against the logarithm of ligand concentration, using Prism software to fit a binding curve to the data point using the "one site specific" binding option. All MST measurements were performed in triplicate, with each set of experiments including a negative control to rule out nonspecific binding.

[3] = target: T2, CRISP2 (Homo sapiens, UniProt P16562); experiment: Microscale thermophoresis (MST) binding to fluorescently labeled CRISP2
T2 sequence (P16562 22-243): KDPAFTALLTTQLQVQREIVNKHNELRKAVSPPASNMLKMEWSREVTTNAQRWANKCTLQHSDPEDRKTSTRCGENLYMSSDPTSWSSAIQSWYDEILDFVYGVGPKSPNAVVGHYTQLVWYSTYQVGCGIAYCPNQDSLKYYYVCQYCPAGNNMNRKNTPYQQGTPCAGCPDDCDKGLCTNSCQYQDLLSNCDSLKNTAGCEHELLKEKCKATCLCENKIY
Procedure: (§2) MST is based on the diffusion of a fluorescently labeled molecule along a microscopic temperature gradient. In this assay, the free protein diffuses faster than its ligand-bound form. Ligands can range from small ions to low molecular weight compounds, liposomes, and even entire viruses ([35], [39], [40], [41]).
as §1

[4] = target: T3, CRISP2^L98G Y99P (Homo sapiens, UniProt P16562, L98G/Y99P); experiment: MST binding to labeled CRISP2 L98G Y99P mutant
T3 construct: made in house; host or cells: E. coli BL21
T3 sequence (P16562 22-243 L98G/Y99P): T2 sequence (P16562 22-243) with L77G, Y78P
Procedure: as §1

[5] = target: T4, CRISP2 (Homo sapiens, UniProt P16562); experiment: Microscale thermophoresis (MST) binding to fluorescently labeled CRISP2; conditions: Kd of cholesterol sulfate binding by CRISP2 in the presence of Ig1, MST; CRISP2-Ig1
T4 sequence (P16562 22-243): T2 sequence (P16562 22-243)
T4 sequence (P04217 with tags, fused parts or gaps partner): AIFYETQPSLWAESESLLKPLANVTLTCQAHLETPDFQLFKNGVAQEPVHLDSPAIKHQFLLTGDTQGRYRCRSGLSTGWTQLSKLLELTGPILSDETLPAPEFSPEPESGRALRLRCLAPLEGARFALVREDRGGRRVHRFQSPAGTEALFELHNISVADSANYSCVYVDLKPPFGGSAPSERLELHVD
Procedure: as §2, §1

“Ig3 domain of A1BG, purified (domain or fragment)” gave a Kd [1] of 13.8 nM.
For `CCCCCCCCCCCCCCCC(=O)O` [palmitic acid], the “Kd of palmitic acid binding by A1BG” value [2] was “did not bind”, the Kd ([3]; Kd of palmitic acid binding by CRISP2, MST, CRISP2 alone) was 64600 ± 20700 nM and the Kd ([3]; Kd of palmitic acid binding by CRISP2 in the presence of A1BG, MST, CRISP2+A1BG) was 70000 ± 22700 nM.
“Ig1 domain of A1BG, purified (domain or fragment)” showed a Kd [1] of 38.7 nM.
With `CC(C)CCC[C@@H](C)[C@H]1CC[C@H]2[C@@H]3CC=C4C[C@@H](OS(=O)(=O)O)CC[C@]4(C)[C@H]3CC[C@]12C` [cholesterol sulfate] the “Kd of cholesterol sulfate binding by CRISP2 L98G Y99P in the presence of Ig3” value [4] was “inhibited”, the Kd [5] was 4000 ± 1980 nM and the Kd ([3]; Kd of cholesterol sulfate binding by CRISP2 + EDTA + MgCl2, MST, EDTA 5 mM, MgCl2 10 mM) was 70 ± 20 nM. The Kd ([3]; Kd of cholesterol sulfate binding by CRISP2, MST, CRISP2 alone) was 3210 nM and 2630 nM, the Kd ([3]; Kd of cholesterol sulfate binding by CRISP2 in the presence of Ig4, MST, CRISP2-Ig4) was 2050 ± 760 nM and the “Kd of cholesterol sulfate binding by CRISP2 in the presence of A1BG” value ([3]; MST, equimolar concentration of A1BG) was “blocked”.
